The source made the active and inactive calls. The rule behind the calls is not given here.
Legend:
[1] = system: Enterococcus faecium; assay: Antimicrobial activity against vancomycin-resistant Enterococcus faecium ATCC 700221 measured after 18 hrs by broth microdilution method; type: functional; settings: ATCC 700221, 18 h
[2] = system: Bacillus subtilis; assay: Antibacterial activity against Bacillus subtilis 168 measured after 18 hrs by broth microdilution method; type: functional; settings: subsp. subtilis str. 168, 18 h
[3] = system: Staphylococcus aureus; assay: Antimicrobial activity against penicillin-resistant Staphylococcus aureus ATCC 29213 measured after 18 hrs by broth microdilution method; type: functional; settings: ATCC 29213, 18 h
[4] = system: Escherichia coli; assay: Antibacterial activity against FtsZ over-expressing Escherichia coli BL21 measured after 18 hrs by broth microdilution method; type: functional; settings: BL21, 18 h
[5] = system: Escherichia coli; assay: Antibacterial activity against Escherichia coli BL21 measured after 18 hrs by broth microdilution method; type: functional; settings: BL21, 18 h
[6] = system: Pseudomonas aeruginosa; assay: Antimicrobial activity against multidrug-resistant Pseudomonas aeruginosa ATCC BAA-2108 measured after 18 hrs by broth microdilution method; type: functional; settings: ATCC BAA-2108, 18 h
[7] = molecular target: T1, Cell division protein FtsZ (Staphylococcus aureus) (UniProt P0A031); assay: Inhibition of Staphylococcus aureus FtsZ GTPase activity at 1 ug/ml preincubated for 10 mins followed by GTP addition and measured after 30 mins relative to control
T1 sequence (whole entry): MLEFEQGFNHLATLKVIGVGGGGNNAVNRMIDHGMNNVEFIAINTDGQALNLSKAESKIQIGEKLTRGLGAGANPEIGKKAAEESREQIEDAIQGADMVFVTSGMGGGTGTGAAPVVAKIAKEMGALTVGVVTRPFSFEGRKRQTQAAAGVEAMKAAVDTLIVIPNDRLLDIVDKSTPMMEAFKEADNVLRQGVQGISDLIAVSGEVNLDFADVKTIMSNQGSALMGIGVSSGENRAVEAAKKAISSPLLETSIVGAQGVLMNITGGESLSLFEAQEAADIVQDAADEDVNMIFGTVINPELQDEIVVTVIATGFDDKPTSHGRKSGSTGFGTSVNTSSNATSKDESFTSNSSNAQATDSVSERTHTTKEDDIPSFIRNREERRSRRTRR

[8] = system: Staphylococcus aureus; assay: Ratio of MBC to MIC for methicillin-resistant Staphylococcus aureus ATCC BAA-41; type: functional
[9] = molecular target: T1, Cell division protein FtsZ (Staphylococcus aureus); assay: Inhibition of Staphylococcus aureus FtsZ GTPase activity at 32 ug/ml preincubated for 10 mins followed by GTP addition and measured after 30 mins relative to control
[10] = molecular target: T1, Cell division protein FtsZ (Staphylococcus aureus); assay: Inhibition of Staphylococcus aureus FtsZ GTPase activity at 64 ug/ml preincubated for 10 mins followed by GTP addition and measured after 30 mins relative to control
[11] = system: Bacillus subtilis; assay: Disruption of membrane integrity in Bacillus subtilis 168 at MIC after 4 hrs by FM4-64 dye based confocal microscopic method; type: organism-based, subsp. subtilis str. 168
[12] = system: Enterococcus faecium; assay: Antimicrobial activity against drug-susceptible Enterococcus faecium ATCC 49624 measured after 18 hrs by broth microdilution method; type: functional; settings: ATCC 49624, 18 h
[13] = molecular target: T2, Cell division protein FtsZ (Bacillus subtilis (strain 168)) (UniProt P17865); assay: Inhibition of cell division function of FtsZ in Bacillus subtilis 168 assessed as cell length at MIC after 4 hrs by FM4-64 dye based confocal microscopic method; settings: Bacillus subtilis subsp. subtilis str. 168
T2 sequence (whole entry): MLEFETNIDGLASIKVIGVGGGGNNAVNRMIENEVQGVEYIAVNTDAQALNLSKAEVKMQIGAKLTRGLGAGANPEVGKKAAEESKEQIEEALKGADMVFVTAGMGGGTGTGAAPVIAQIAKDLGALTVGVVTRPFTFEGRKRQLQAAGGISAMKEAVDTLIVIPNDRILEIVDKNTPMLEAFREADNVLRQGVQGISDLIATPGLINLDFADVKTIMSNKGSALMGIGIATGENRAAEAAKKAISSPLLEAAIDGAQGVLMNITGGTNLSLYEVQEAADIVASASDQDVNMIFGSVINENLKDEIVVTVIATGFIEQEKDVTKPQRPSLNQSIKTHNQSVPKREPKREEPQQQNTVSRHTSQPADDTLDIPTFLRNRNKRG

[14] = system: Escherichia coli; assay: Antimicrobial activity against Escherichia coli ATCC 25922 measured after 18 hrs by broth microdilution method; type: functional; settings: ATCC 25922, 18 h
[15] = molecular target: T1, Cell division protein FtsZ (Staphylococcus aureus); assay: Inhibition of Staphylococcus aureus FtsZ GTPase activity preincubated for 10 mins followed by GTP addition and measured after 30 mins
[16] = system: Staphylococcus aureus; assay: Antimicrobial activity against methicillin-resistant Staphylococcus aureus ATCC 43300 measured after 18 hrs by broth microdilution method; type: functional; settings: ATCC 43300, 18 h
[17] = system: Staphylococcus aureus; assay: Bactericidal activity against methicillin-resistant Staphylococcus aureus ATCC BAA-41 assessed as reduction in bacterial load at 2 to 4 times MIC incubated for 4 hrs followed by replating on MH agar and measured after 24 hrs by time-kill assay; type: functional, organism-based
[18] = system: Acinetobacter baumannii; assay: Antimicrobial activity against multidrug-resistant Acinetobacter baumannii ATCC 19606 measured after 18 hrs by broth microdilution method; type: functional; settings: ATCC 19606 = CIP 70.34 = JCM 6841, 18 h
[19] = system: Staphylococcus aureus; assay: Antimicrobial activity against Staphylococcus aureus ATCC 25923 measured after 18 hrs by broth microdilution method; type: functional; settings: ATCC 25923, 18 h
[20] = system: Staphylococcus aureus; assay: Bactericidal activity against methicillin-resistant Staphylococcus aureus ATCC BAA-41 assessed as reduction in bacterial load incubated for 1 to 24 hrs followed by replating on MH agar and measured after 24 hrs by time-kill assay; type: functional, organism-based
[21] = system: Klebsiella pneumoniae; assay: Antimicrobial activity against NDM1 beta-lactamase expressing Klebsiella pneumoniae ATCC BAA-2470 measured after 18 hrs by broth microdilution method; type: functional; settings: ATCC BAA-2470, 18 h
[22] = system: Staphylococcus aureus; assay: Bactericidal activity against methicillin-resistant Staphylococcus aureus ATCC BAA-41 incubated for 18 hrs followed by replating on TSB agar and measured after 24 hrs by broth microdilution method; type: functional
[23] = system: Staphylococcus aureus; assay: Bactericidal activity against methicillin-resistant Staphylococcus aureus ATCC BAA-41 assessed as bacterial load at 1 to 4 times MIC incubated for 24 hrs followed by replating on MH agar and measured after 24 hrs by time-kill assay; type: functional
[24] = system: Staphylococcus aureus; assay: Antimicrobial activity against penicillin-resistant Staphylococcus aureus ATCC 29213 assessed as ratio of MIC after and before 15 serial passages preincubated followed by replating and measured after 24 hrs; type: functional
[25] = system: Staphylococcus aureus; assay: Antimicrobial activity against methicillin-resistant Staphylococcus aureus ATCC BAA-41 measured after 18 hrs by broth microdilution method; type: functional; settings: ATCC BAA-41, 18 h
[26] = molecular target: T1, Cell division protein FtsZ (Staphylococcus aureus); assay: Inhibition of recombinant Staphylococcus aureus FtsZ polymerization by 90 degree light scattering-based fluorescence spectrometric analysis
[27] = molecular target: T1, Cell division protein FtsZ (Staphylococcus aureus); assay: Inhibition of Staphylococcus aureus FtsZ GTPase activity at 4 ug/ml preincubated for 10 mins followed by GTP addition and measured after 30 mins relative to control
[28] = system: Escherichia coli; assay: Antimicrobial activity against NDM1 beta -lactamse expressing Escherichia coli ATCC BAA-2469 measured after 18 hrs by broth microdilution method; type: functional; settings: ATCC BAA-2469, 18 h
[29] = system: Enterococcus faecalis; assay: Antimicrobial activity against Enterococcus faecalis ATCC 29212 measured after 18 hrs by broth microdilution method; type: functional; settings: ATCC 29212, 18 h
[30] = system: Staphylococcus aureus; assay: Bactericidal activity against penicillin-resistant Staphylococcus aureus ATCC 29213 incubated for 18 hrs followed by replating on TSB agar and measured after 24 hrs by broth microdilution method; type: functional
[31] = system: Staphylococcus aureus; assay: Ratio of MBC to MIC for penicillin-resistant Staphylococcus aureus ATCC 29213; type: functional
[32] = molecular target: T1, Cell division protein FtsZ (Staphylococcus aureus); assay: Inhibition of recombinant Staphylococcus aureus FtsZ polymerization at 0.4 to 1.2 ug/ml by 90 degree light scattering-based fluorescence spectrometric analysis; settings: TDE = time-dependent effect
[33] = molecular target: T1, Cell division protein FtsZ (Staphylococcus aureus); assay: Inhibition of Staphylococcus aureus FtsZ GTPase activity at 16 ug/ml preincubated for 10 mins followed by GTP addition and measured after 30 mins relative to control
[34] = system: Enterobacter cloacae; assay: Antimicrobial activity against Ampc beta-lactamase expressing Enterobacter cloacae ATCC BAA-1143 measured after 18 hrs by broth microdilution method; type: functional; settings: ATCC BAA-1143, 18 h
[35] = molecular target: T2, Cell division protein FtsZ (Bacillus subtilis (strain 168)); assay: Inhibition of cell division function of FtsZ in Bacillus subtilis 168 assessed as increase in cell length at MIC after 4 hrs by FM4-64 dye based confocal microscopic method; settings: Bacillus subtilis subsp. subtilis str. 168

| SMILES | MIC [1] [µg/mL] | MIC [2] [µg/mL] | MIC [3] [µg/mL] | MIC [4] [µg/mL] | MIC [5] [µg/mL] | MIC [6] [µg/mL] | inhibition [7] [%] | Ratio [8] | inhibition [9] [%] | inhibition [10] [%] | MIC [12] [µg/mL] | MIC [14] [µg/mL] | inhibition [15] | MIC [16] [µg/mL] | MIC [18] [µg/mL] | MIC [19] [µg/mL] | MIC [21] [µg/mL] | MBC [22] [µg/mL] | Ratio [24] | MIC [25] [µg/mL] | also measured |
| --- | --- | --- | --- | --- | --- | --- | --- | --- | --- | --- | --- | --- | --- | --- | --- | --- | --- | --- | --- | --- | --- |
| C[n+]1c(/C=C/c2cc3ccccc3[nH]2)cc(N2CCCCC2)c2ccccc21.[I-] | 4 | 4 | 1 | 32 | 8 | > 64 | 17.9 | 2 | 48.3 | 52.1 | 2 | 16 | Dose-dependent effect | 2 | 32 | 1 | > 64 | 4 | 4 | 2 | Activity [11]: Non-Toxic; Activity [13]: 70 to 130 µm; Activity [17]: Active; Activity [20]: Dose-dependent effect; Activity [23]: 1 ×10³ CFU/ml; inhibition [26]: Dose-dependent effect; inhibition [27]: 30.2%; MIC [28]: 16 µg/mL; MIC [29]: 4 µg/mL; MBC [30]: 2 µg/mL; Ratio [31]: 2; inhibition [32]: Tde; inhibition [33]: 40.8%; MIC [34]: > 64 µg/mL |
| C[n+]1c(/C=C/c2c[nH]c3ccccc23)cc(N2CCCCC2)c2ccccc21.[I-] | 4 | 4 | 1 | 16 | 8 | > 64 | 13.6 | 2 | 34.3 | 41.9 | 2 | 8 | Dose-dependent effect | 4 | 16 | 2 | > 64 | 4 | 4 | 2 | inhibition [35]: Active; inhibition [27]: 27.8%; MIC [28]: 16 µg/mL; MIC [29]: 4 µg/mL; MBC [30]: 2 µg/mL; Ratio [31]: 2; inhibition [33]: 31.8%; MIC [34]: > 64 µg/mL |
